Tested on: Balb/c mice
Experiment: Immunization of mice with detoxified TAT vaccine compositions; TAT-specific IgG by ELISA
Format: in vivo
Settings: 2 subcutaneous injections D0, D21, 1 μg TAT antigen
Protocol: Vaccine compositions comprising, as antigen, a detoxified TAT III B protein are prepared. The TAT protein was detoxified by means of an alkylation reaction in an alkaline medium using iodoacetamide under the following conditions: number of micromoles of iodoacetamide=200×number of micromoles of TAT+number of micromoles of DTT. This detoxified protein and the method for preparing it are described in detail in application WO 99/33346, where it is identified under the term “carboxymethylated TAT”.
Immunizing doses having the following composition are the obtained:
Adult Balb/c mice and 1-week-old “newborn” Balb/c mice are provided and are divided up into groups of 6 to 8 (groups of young mice) or of 5 to 6 (groups of adult mice). Experiments are carried out with 2 subcutaneous injections of the same vaccine formulation at D0 and at D21. Blood samples are taken after the booster injection. The TAT-specific immunoglobulins are assayed by the ELISA technique. A total of 10 to 40 mice per formulation was tested in several independent experiments: for the DC-Chol: 27 adults, 38 newborns; for the aluminum oxyhydroxide: 18 adults, 22 newborns; for the emulsion: 10 adults and 16 newborns; and in saline solution: 10 adults and 15 newborns. […]

“3β-[N-(N′,N′-dimethyl-aminoethane)carbamoyl]cholesterol [DCchol]” was tested, and the “adjuvant effect on TAT-specific total IgG response (FIG. 1), in words” value (adult Balb/c mice) was “capable of increasing the immune response” and the “adjuvant effect on TAT-specific total IgG response (FIG. 1), in words” value (newborn (1-week-old) Balb/c mice) was “capable of increasing the immune response”.

Source: US20060165717A1 (priority 2005, published 2006)
